Reference: patent publication US4950686A, “Anti-mycoplasma agent” (Shionogi & Co., Ltd., priority 1986, dated 1990)
Values after ≈ are worked out from the molar mass of the structure shown.

Legend:
[1] = system: Mycoplasma gallisepticum S6 (standard strain); experiment: Anti-mycoplasma activity in vitro (MIC, broth dilution), strain S6; assay type: cell-based; conditions: Mg S6, 37° C., 7 days
Outline: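 Chick PPLO broth with 20% equine serum; 2-fold serial agent dilutions inoculated with culture diluted to 10^6 CCU/ml (inoculum concentration before addition). Incubated 7 days at 37 °C; MIC by broth dilution.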

[2] = system: Mycoplasma gallisepticum T-7-T (wild strain, tylosin-resistant); experiment: Anti-mycoplasma activity in vitro (MIC, broth dilution), strain T-7-T; assay type: cell-based; conditions: Mg T-7-T, 37° C., 7 days
Outline: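 Broth dilution MIC in chick PPLO broth with 20% equine serum, using 2-fold agent dilutions. Inoculum of 24-48 h culture diluted to 10^6 CCU/ml before use. Incubated 7 days at 37° C.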

[3] = system: Mycoplasma gallisepticum MR-1 (wild strain, tylosin-resistant); experiment: Anti-mycoplasma activity in vitro (MIC, broth dilution), strain MR-1; assay type: cell-based; conditions: Mg MR-1, 37° C., 7 days
Outline: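 Broth dilution in chick PPLO broth with 20% equine serum; 2-fold compound dilutions, inoculum diluted to 10^6 CCU/ml. Incubated 7 days at 37 °C; MIC recorded.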

[4] = system: Mycoplasma hyopneumoniae ST-11 (standard strain); experiment: Anti-mycoplasma activity in vitro (MIC, broth dilution), strain ST-11; assay type: cell-based; conditions: Mesomycoplasma hyopneumoniae, Mh ST-11; read-out: MIC
Outline: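 MIC by broth dilution in Hanks' solution with 0.5% lactoalbumin, yeast, equine serum and phenol red, pH 7.4-7.6. Inoculum: 3-4-day culture, turned yellow, diluted 10-fold in broth (subcultured first if yellowing took over 4 days).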

[5] = system: Mycoplasma gallisepticum T-7-T (wild strain, tylosin-resistant); experiment: Mycoplasma gallisepticum air-sac infection method in chicken, strain T-7-T; assay type: in vivo, Mycoplasma gallisepticum; SPF chicken (white leghorn);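 for Index of Isolation: index = (P×1 + Q×2 + R×3)/S with range 0 to 6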
Outline: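 9-day-old SPF white leghorn chickens, fasted one day, received tylosin-resistant M. gallisepticum T-7-T culture (usually diluted 100×) into the right air sac. Compound was given as a single forced oral dose by cannula immediately after infection, in mg/ml. At day 5, air-sac lesions (0–3) were scored as a weighted index and organisms were re-isolated from the air sacs and trachea.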

[6] = system: Mycoplasma gallisepticum MR-1 (wild strain, tylosin-resistant); experiment: Mycoplasma gallisepticum air-sac infection method in chicken, strain MR-1;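 for Index of Isolation: index = (P×1 + Q×2 + R×3)/S with range 0 to 6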; assay type: in vivo, Mycoplasma gallisepticum; SPF chicken (white leghorn); conditions: 100 mg/kg × once oral, 10 mg/ml sol. b
Procedure: (2) Test of Effectiveness Mycoplasma gallisepticum air-sac infection method
MR-1 (wild strain, tylosin-resistant)
Inoculation: To the right air-sac of 9 days old SPF chicken (a white leghorn) which has abstained from water and feed one day before is inoculated 0.20-0.25 ml/chicken of fresh mycoplasma culture incubated for 24-48 hr and diluted with broth (usually 100 times). The concentration in Table 2 is shown in a unit of mg/ml.
Medium: Chick PPLO broth supplemented with 15% equine serum (Eiken Kagaku Co., Ltd.)
Administration: A compound of this invention dissolved or suspended in the following solution is orally and forcibly administered once by a cannula immediately after the infection.
Anatomization and Isolation of Microorganism: The chickens are anatomized 5 days after the infection, and the right and left air sacs are investigated whether they are attacked with a disease or not. The change caused by the disease is represented in four degrees; -: no change, +: slight, ++: medium and +++: serious. Microorganism is isolated from the right and left air-sacs and the trachea by using a sterilized applicator.
Judgement: Judgement is done through an index of an air-sac disease and an index of a microorganism-isolation.
Index of an air-sac-disease: First, indexes in the right and left air-sacs are separately calculated according to the following formula;
{degree of disease (0-3)×chickens}/anatomized chickens
and the index is calculated by the following formula;
(index of right air-sac)×1+(index of left air-sac)×2
Index of a microorganism isolation:
P: chickens from the right air-sac of which microorganism is isolated,
Q: chickens from the trachea of which microorganism is isolated,
R: chickens from the left air-sac of which microorganism is isolated, and
S: chickens investigated.

[7] = 100 mg/kg × once oral, 10 mg/ml sol. b, inoculum 10^2
[8] = 200 mg/kg × once oral, 20 mg/ml sol. a, inoculum 1.9 × 10^5
[9] = 200 mg/kg × once oral, 20 mg/ml sol. c, inoculum 1.9 × 10^5

Compound: O=c1cccccc1O [Tropolone, tropolone]
- MIC [1]: 0.2 µg/mL (≈ 1.64 µM)
- MIC [2]: 0.39 µg/mL (≈ 3.19 µM)
- MIC [3]: 0.39 µg/mL (≈ 3.19 µM)
- MIC [4]: 0.78 µg/mL (≈ 6.39 µM)
- Change of air-sac, left: + (chickens) [5, 7]: 0
- Change of air-sac, left: ++ (chickens) [5, 7]: 0
- Change of air-sac, left: +++ (chickens) [5, 7]: 0
- Change of air-sac, left: - (chickens) [5, 7]: 8
- Change of air-sac, right: + (chickens) [5, 7]: 0
- Change of air-sac, right: ++ (chickens) [5, 7]: 0
- Change of air-sac, right: +++ (chickens) [5, 7]: 0
- Change of air-sac, right: - (chickens) [5, 7]: 8
- Isolation, L (left air-sac) [5, 7]: 1
- Isolation, R (right air-sac) [5, 7]: 0
- Isolation, T (trachea) [5, 7]: 1
- Mycoplasma Isolated Chickens [5, 7]: 2
- Index of Isolation ([5]; 100 mg/kg × once oral, 10 mg/ml sol. b, inoculum 10^2, range 0-6.0): 0.40
- Index of Disease ([5]; 100 mg/kg × once oral, 10 mg/ml sol. b, inoculum 10^2, range 0-9.0): 0
- Change of air-sac, left: + (chickens) [5, 8]: 0
- Change of air-sac, left: ++ (chickens) [5, 8]: 0
- Change of air-sac, left: +++ (chickens) [5, 8]: 0
- Change of air-sac, left: - (chickens) [5, 8]: 5
- Change of air-sac, right: + (chickens) [5, 8]: 0
- Change of air-sac, right: ++ (chickens) [5, 8]: 0
- Change of air-sac, right: +++ (chickens) [5, 8]: 0
- Change of air-sac, right: - (chickens) [5, 8]: 5
- Isolation, L (left air-sac) [5, 8]: 2
- Isolation, R (right air-sac) [5, 8]: 2
- Isolation, T (trachea) [5, 8]: 3
- Mycoplasma Isolated Chickens [5, 8]: 3
- Index of Isolation ([5]; 200 mg/kg × once oral, 20 mg/ml sol. a, inoculum 1.9 × 10^5, range 0-6.0): 2.8
- Index of Disease ([5]; 200 mg/kg × once oral, 20 mg/ml sol. a, inoculum 1.9 × 10^5, range 0-9.0): 0
- Change of air-sac, left: + (chickens) [5, 9]: 0
- Change of air-sac, left: ++ (chickens) [5, 9]: 0
- Change of air-sac, left: +++ (chickens) [5, 9]: 0
- Change of air-sac, left: - (chickens) [5, 9]: 5
- Change of air-sac, right: + (chickens) [5, 9]: 0
- Change of air-sac, right: ++ (chickens) [5, 9]: 0
- Change of air-sac, right: +++ (chickens) [5, 9]: 0
- Change of air-sac, right: - (chickens) [5, 9]: 5
- Isolation, L (left air-sac) [5, 9]: 4
- Isolation, R (right air-sac) [5, 9]: 4
- Isolation, T (trachea) [5, 9]: 5
- Mycoplasma Isolated Chickens [5, 9]: 5
- Index of Isolation ([5]; 200 mg/kg × once oral, 20 mg/ml sol. c, inoculum 1.9 × 10^5, range 0-6.0): 5.2
- Index of Disease ([5]; 200 mg/kg × once oral, 20 mg/ml sol. c, inoculum 1.9 × 10^5, range 0-9.0): 0
- Change of air-sac, left: + (chickens) ([6]; inoculum 0.3 × 10^5): 0
- Change of air-sac, left: ++ (chickens) ([6]; inoculum 0.3 × 10^5): 0
- Change of air-sac, left: +++ (chickens) ([6]; inoculum 0.3 × 10^5): 0
- Change of air-sac, left: - (chickens) ([6]; inoculum 0.3 × 10^5): 6
- Change of air-sac, right: + (chickens) ([6]; inoculum 0.3 × 10^5): 0
- Change of air-sac, right: ++ (chickens) ([6]; inoculum 0.3 × 10^5): 0
- Change of air-sac, right: +++ (chickens) ([6]; inoculum 0.3 × 10^5): 0
- Change of air-sac, right: - (chickens) ([6]; inoculum 0.3 × 10^5): 6
- Isolation, L (left air-sac) ([6]; inoculum 0.3 × 10^5): 3
- Isolation, R (right air-sac) ([6]; inoculum 0.3 × 10^5): 4
- Isolation, T (trachea) ([6]; inoculum 0.3 × 10^5): 3
- Mycoplasma Isolated Chickens ([6]; inoculum 0.3 × 10^5): 6
- Index of Isolation ([6]; inoculum 0.3 × 10^5, range 0-6.0): 3.2
- Index of Disease ([6]; inoculum 0.3 × 10^5, range 0-9.0): 0
